Data published in US20110105623A1 (Biogenic Innovations, LLC, priority 2009, published 2011).
Values joined by “and” are separate entries in the source; they are usually repeats but may differ in a detail not shown here. Equal entries are not always repeated.

How the values were obtained:
[1] = system: Streptococcus Pyogenes (Lancefield group A, #10096); test: Bacterial viability by bioluminescent ATP assay
[2] = system: Acidophilus plus Bifidus milk microorganisms; test: Recovery from Acidophilus plus bifidus milk fortified with MSM; assay type: cell-based; conditions: for Lag Recovery of Lactobacillus acidophilus in Milk fortified with MSM Day 14: A/B 2.5 MSM; for Lag Recovery of Lactobacillus acidophilus in Milk fortified with MSM Day 7 / Lag Recovery of Lactobacillus acidophilus in Milk fortified with MSM Day 21 / Lag Recovery of Lactobacillus acidophilus in Milk fortified with MSM Day 28: A/B […] MSM
[3] = system: Lactobacillus acidophilus; test: Recovery from Acidophilus milk fortified with MSM into broth without MSM; assay type: cell-based; conditions: for Lag Recovery of Lactobacillus acidophilus in Milk fortified with MSM Day 14 / Lag Recovery of Lactobacillus acidophilus in Milk fortified with MSM Day 21 / Lag Recovery of Lactobacillus acidophilus in Milk fortified with MSM Day 28: duplicates; for Lag Recovery of Lactobacillus acidophilus in Milk fortified with MSM Day 21 / Lag Recovery of Lactobacillus acidophilus in Milk fortified with MSM Day 28: 0.50% MSM
Protocol: The Acidophilus milk was low fat (Darigold). […] All preparations and plating was conducted at room temperature.
The recovery study was run parallel to the study done on the affects of MSM on growth of Lactobacillus acidophilus in Acidophilus milk fortified with MSM. The recovery growth rate was analyzed on Day 7, Day 14, Day 21 and Day 28. For Table 27, the growth for Day x with no time is calculated from the initial growth study with the dilution factor into the log growth. […] Table 28 takes the value of 2.00 as the starting value.

Methylsulfonylmethane [MSM]
IC50 [1]: 10.26%
Lag Recovery of Lactobacillus acidophilus in Milk fortified with MSM Day 14 ([2]; Day 14-24): 13.35 logs
Lag Recovery of Lactobacillus acidophilus in Milk fortified with MSM Day 14 ([2]; Day 14-48): 13.47 logs
Lag Recovery of Lactobacillus acidophilus in Milk fortified with MSM Day 14 ([2]; Day 14-72): 13.43 logs
Lag Recovery of Lactobacillus acidophilus in Milk fortified with MSM Day 7 ([2]; Day 7-24): 13.44 logs
Lag Recovery of Lactobacillus acidophilus in Milk fortified with MSM Day 7 ([2]; Day 7-72): 12.77 logs
Lag Recovery of Lactobacillus acidophilus in Milk fortified with MSM Day 21 ([2]; Day 21-24): 13.08 logs
Lag Recovery of Lactobacillus acidophilus in Milk fortified with MSM Day 21 ([2]; Day 21-48): 12.08 logs
Lag Recovery of Lactobacillus acidophilus in Milk fortified with MSM Day 21 ([2]; Day 21-72): 12.33 logs
Lag Recovery of Lactobacillus acidophilus in Milk fortified with MSM Day 28 ([2]; Day 28-24): 12.67 logs
Lag Recovery of Lactobacillus acidophilus in Milk fortified with MSM Day 28 ([2]; Day 28-48): 13.19 logs
Lag Recovery of Lactobacillus acidophilus in Milk fortified with MSM Day 28 ([2]; Day 28-72): 12.00 logs
Recovery of Lactobacillus acidophilus in Milk fortified with MSM Day 7, initial start data ([2]; Ac/Bf […] MSM, Day 7): 8.42 logs
Recovery of Lactobacillus acidophilus in Milk fortified with MSM Day 14, initial start data ([2]; Ac/Bf […] MSM, Day 14-0): 3.70 logs
Recovery of Lactobacillus acidophilus in Milk fortified with MSM Day 21, initial start data ([2]; Ac/Bf […] MSM, Day 21): 3.37 logs
Recovery of Lactobacillus acidophilus in Milk fortified with MSM Day 28, initial start data ([2]; Ac/Bf […] MSM, Day 28): 1.94 logs
Day 7 log recovery growth rate increase from start time of zero ([2]; Ac/Bf […] MSM, Hour 0): 0.00 logs
Day 14 log recovery growth rate increase from start time of zero ([2]; Ac/Bf […] MSM, Hour 0): 0.00 logs
Day 21 log recovery growth rate increase from start time of zero ([2]; Ac/Bf […] MSM, Hour 0): 0.00 logs
Day 7 log recovery growth rate increase from start time of zero ([2]; Ac/Bf […] MSM, Hour 24): 5.02 logs
Day 14 log recovery growth rate increase from start time of zero ([2]; Ac/Bf […] MSM, Hour 24): 9.65 logs
Day 21 log recovery growth rate increase from start time of zero ([2]; Ac/Bf […] MSM, Hour 24): 9.71 logs
Day 7 log recovery growth rate increase from start time of zero ([2]; Ac/Bf […] MSM, Hour 48): −0.94 logs
Day 14 log recovery growth rate increase from start time of zero ([2]; Ac/Bf […] MSM, Hour 48): 0.12 logs
Day 21 log recovery growth rate increase from start time of zero ([2]; Ac/Bf […] MSM, Hour 48): −1.00 logs
Day 7 log recovery growth rate increase from start time of zero ([2]; Ac/Bf […] MSM, Hour 72): 0.27 logs
Day 14 log recovery growth rate increase from start time of zero ([2]; Ac/Bf […] MSM, Hour 72): −0.04 logs
Day 21 log recovery growth rate increase from start time of zero ([2]; Ac/Bf […] MSM, Hour 72): 0.25 logs
Day 28 log recovery growth rate increase from start time of zero ([2]; Ac/Bf […] MSM, Time 0): 0.00 logs
Day 28 log recovery growth rate increase from start time of zero ([2]; Ac/Bf […] MSM, Time 24): 10.73 logs
Day 28 log recovery growth rate increase from start time of zero ([2]; Ac/Bf […] MSM, Time 48): 0.52 logs
Day 28 log recovery growth rate increase from start time of zero ([2]; Ac/Bf […] MSM, Time 72): −1.19 logs
Recovery of Lactobacillus acidophilus in Milk fortified with MSM Day 7, initial start data ([3]; 0.5% MSM): 8.68 logs
Recovery of Lactobacillus acidophilus in Milk fortified with MSM Day 7, average recovery ([3]; 0.5% MSM, Day 7-24): 12.94 logs
Recovery of Lactobacillus acidophilus in Milk fortified with MSM Day 7, average recovery ([3]; 0.5% MSM, Day 7-48): 12.69 logs
Recovery of Lactobacillus acidophilus in Milk fortified with MSM Day 7, average recovery ([3]; 0.5% MSM, Day 7-72): 13.07 logs
Recovery of Lactobacillus acidophilus in Milk fortified with MSM Day 14, initial start data ([3]; 0.5% MSM, Day 14-0): 4.22 logs
Recovery of Lactobacillus acidophilus in Milk fortified with MSM Day 14, average recovery ([3]; 0.5% MSM, Day 14-24): 10.15 logs
Lag Recovery of Lactobacillus acidophilus in Milk fortified with MSM Day 14 ([3]; 0.5% MSM, Day 14-24): 10.19 logs and 10.10 logs
Recovery of Lactobacillus acidophilus in Milk fortified with MSM Day 14, average recovery ([3]; 0.5% MSM, Day 14-48): 12.84 logs
Lag Recovery of Lactobacillus acidophilus in Milk fortified with MSM Day 14 ([3]; 0.5% MSM, Day 14-48): 12.95 logs and 12.72 logs
Recovery of Lactobacillus acidophilus in Milk fortified with MSM Day 14, average recovery ([3]; 0.5% MSM, Day 14-72): 12.86 logs
Lag Recovery of Lactobacillus acidophilus in Milk fortified with MSM Day 14 ([3]; 0.5% MSM, Day 14-72): 13.02 logs and 12.70 logs
Recovery of Lactobacillus acidophilus in Milk fortified with MSM Day 21, initial start data ([3]; 0.5% MSM, Day 21): 3.37 logs
Recovery of Lactobacillus acidophilus in Milk fortified with MSM Day 21, average recovery ([3]; 0.5% MSM, Day 21-24): 12.91 logs
Lag Recovery of Lactobacillus acidophilus in Milk fortified with MSM Day 21 ([3]; Day 21-24): 12.89 logs and 12.93 logs
Recovery of Lactobacillus acidophilus in Milk fortified with MSM Day 21, average recovery ([3]; 0.5% MSM, Day 21-48): 13.02 logs
Lag Recovery of Lactobacillus acidophilus in Milk fortified with MSM Day 21 ([3]; Day 21-48): 12.94 logs and 13.1 logs
Recovery of Lactobacillus acidophilus in Milk fortified with MSM Day 21, average recovery ([3]; 0.5% MSM, Day 21-72): 11.30 logs
Lag Recovery of Lactobacillus acidophilus in Milk fortified with MSM Day 21 ([3]; Day 21-72): 12.29 logs and 10.31 logs
Recovery of Lactobacillus acidophilus in Milk fortified with MSM Day 28, initial start data ([3]; 0.5% MSM, Day 28): 1.00 logs
Recovery of Lactobacillus acidophilus in Milk fortified with MSM Day 28, average recovery ([3]; 0.5% MSM, Day 28-24): 6.29 logs
Lag Recovery of Lactobacillus acidophilus in Milk fortified with MSM Day 28 ([3]; Day 28-24): 6.11 logs and 6.47 logs
Recovery of Lactobacillus acidophilus in Milk fortified with MSM Day 28, average recovery ([3]; 0.5% MSM, Day 28-48): 13.33 logs
Lag Recovery of Lactobacillus acidophilus in Milk fortified with MSM Day 28 ([3]; Day 28-48): 13.66 logs and 12.99 logs
Recovery of Lactobacillus acidophilus in Milk fortified with MSM Day 28, average recovery ([3]; 0.5% MSM, Day 28-72): 13.00 logs
Lag Recovery of Lactobacillus acidophilus in Milk fortified with MSM Day 28 ([3]; Day 28-72): 12.99 logs and 13.01 logs
Day 7 log recovery growth rate increase from start time of zero ([3]; 0.5% MSM, Hour 0): 0.00 logs
Day 14 log recovery growth rate increase from start time of zero ([3]; 0.5% MSM, Hour 0): 0.00 logs
Day 21 log recovery growth rate increase from start time of zero ([3]; 0.5% MSM, Hour 0): 0.00 logs
Day 7 log recovery growth rate increase from start time of zero ([3]; 0.5% MSM, Hour 24): 4.26 logs
Day 14 log recovery growth rate increase from start time of zero ([3]; 0.5% MSM, Hour 24): 5.93 logs
Day 21 log recovery growth rate increase from start time of zero ([3]; 0.5% MSM, Hour 24): 9.54 logs
Day 7 log recovery growth rate increase from start time of zero ([3]; 0.5% MSM, Hour 48): −0.26 logs
Day 14 log recovery growth rate increase from start time of zero ([3]; 0.5% MSM, Hour 48): 2.69 logs
Day 21 log recovery growth rate increase from start time of zero ([3]; 0.5% MSM, Hour 48): 0.11 logs
Day 7 log recovery growth rate increase from start time of zero ([3]; 0.5% MSM, Hour 72): 0.39 logs
Day 14 log recovery growth rate increase from start time of zero ([3]; 0.5% MSM, Hour 72): 0.03 logs
Day 21 log recovery growth rate increase from start time of zero ([3]; 0.5% MSM, Hour 72): −1.72 logs
Day 28 log recovery growth rate increase from start time of zero ([3]; 0.5% MSM, Time 0): 0.00 logs
Day 28 log recovery growth rate increase from start time of zero ([3]; 0.5% MSM, Time 24): 5.29 logs
Day 28 log recovery growth rate increase from start time of zero ([3]; 0.5% MSM, Time 48): 7.04 logs
Day 28 log recovery growth rate increase from start time of zero ([3]; 0.5% MSM, Time 72): −0.32 logs
Recovery of Lactobacillus acidophilus in Milk fortified with MSM Day 7, initial start data ([3]; 5.0% MSM): 8.71 logs
